Assay results as given in article PMC11477289, “Low-Basicity 5-HT6 Receptor Ligands from the Group of Cyclic Arylguanidine Derivatives and Their Antiproliferative Activity Evaluation” (International Journal of Molecular Sciences, 2024).
Like-named read-outs stand apart in the source and are kept apart here.

Columns and labels:
[1] = tested on: HSA and AGP (24:1); assay: in vitro; conditions: human, plasma
[2] = target: T1, human 5-HT6 (Homo sapiens, UniProt P50406); assay: [3H]-LSD radioligand binding assay, 5-HT6R; conditions: HEK293 expressing human 5-HT6R, read-out: 5-HT6 Ki
T1 construct: expressed in transfected cells
Method: Next, the ligands’ affinity for the 5-HT6 receptors was evaluated in the [^3H]-LSD radioligand binding assay. Experiments were performed in a stable HEK293 cell line expressing the human 5-HT6R.
The pellets were stored at −80 °C.

[3] = set-up: method as in PMID 36183548; conditions: MLMs, as previously reported ref 30; cited from earlier work
[4] = target: T2, human serum albumin (HSA) (Homo sapiens, UniProt P02768); set-up: purchased Daicel Chiral Technologies; method as in PMID 28215942; conditions: cited from earlier work
[5] = tested on: U-251 glioblastoma cells; assay: Antiproliferative activity (MTS), U-251; conditions: read-out: IC50 Values U-251
[6] = tested on: U87MG glioblastoma cells; assay: Antiproliferative activity (MTS), U87MG; conditions: 72 h, read-out: IC50 Values U87MG
[7] = tested on: LN-229 glioblastoma cell line; assay: Antiproliferative activity (MTS), LN-229; conditions: read-out: IC50 Values LN-229
[8] = target: T1, human 5-HT6; assay: Functional evaluation, cAMP (LANCE Ultra) in HEK293 cells; format: cell-based; conditions: for Kb: antagonist mode, cAMP induced by 5-CT 1000 nM
Method: The supernatant was aspirated, and the cell pellet was resuspended in a stimulation buffer (1 × HBSS, 5 mM HEPES, 0.5 mM IBMX, 0.1% BSA).
The functional properties of compounds were evaluated using the LANCE Ultra cAMP detection kit (PerkinElmer). […] To investigate the antagonist activity, dopamine for D2R was added at a concentration of 10 nM, and for cell lines with 5-HT7R, 5-HT1AR, or 5-HT6R, 5-CT concentrations were adjusted, being, respectively, 10, 100, and 1000 nM, according to the receptor subtype.
For the quantification of cAMP levels, cells (5 µL) were incubated with a 5 µL mixture of necessary compounds for 30 min at room temperature in a 384-well white opaque microtiter plate (PerkinElmer). After incubation, the reaction was stopped, and cells were lysed by the addition of a 10 µL working solution (5 µL Eu-cAMP and 5 µL ULight-anti-cAMP). The assay plate was incubated for 1 h at room temperature. The time-resolved fluorescence resonance energy transfer (TR-FRET) signal was detected by an Infinite M1000 Pro (Tecan, Männedorf, Switzerland) using instrument settings from the LANCE Ultra cAMP detection kit manual.

[9] = tested on: AsPC-1 pancreas adenocarcinoma cell line; assay: Antiproliferative activity (MTS), AsPC-1; conditions: read-out: IC50 Values AsPC-1
[10] = target: T3, 5-HT1A receptor (Homo sapiens, UniProt P08908); assay: [3H]-8-OHDPAT radioligand binding assay, 5-HT1A
T3 sequence (P08908 1-422): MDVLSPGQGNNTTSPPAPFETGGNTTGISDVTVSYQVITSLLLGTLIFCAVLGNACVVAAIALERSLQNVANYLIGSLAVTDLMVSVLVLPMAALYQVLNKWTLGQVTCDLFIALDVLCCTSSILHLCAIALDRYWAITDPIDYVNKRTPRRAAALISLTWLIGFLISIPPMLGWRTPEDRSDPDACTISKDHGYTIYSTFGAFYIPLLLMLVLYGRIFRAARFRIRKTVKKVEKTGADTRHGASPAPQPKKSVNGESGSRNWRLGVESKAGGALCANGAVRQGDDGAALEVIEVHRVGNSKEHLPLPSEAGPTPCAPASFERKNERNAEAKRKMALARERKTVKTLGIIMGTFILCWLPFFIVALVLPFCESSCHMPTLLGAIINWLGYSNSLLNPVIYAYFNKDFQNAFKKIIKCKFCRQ

[11] = target: 5-HT7b receptor (Homo sapiens, UniProt P34969); assay: [3H]-5-CT radioligand binding assay, 5-HT7
[12] = tested on: HEK293; assay: Cytotoxic activity on HEK293; format: cell-based; conditions: Homo sapiens
From the text: Table 6 Extended receptor affinity study, with functional tests and cytotoxic activity of selected compounds on HEK293. | column: HEK293 / IC50 [µM]

[13] = tested on: MCF7 breast carcinoma cell line; assay: Antiproliferative activity (MTS), MCF7; conditions: read-out: IC50 Values MCF7
[14] = tested on: 1321N1 astrocytoma cell line; assay: Antiproliferative activity (MTS), 1321N1; conditions: read-out: IC50 Values 1321N1
[15] = tested on: normal human astrocytes (NHAs); assay: Activity on normal astrocytes (MTS), NHA; conditions: for IC50: Homo sapiens, Astrocyte, 72 h, read-out: IC50 Values NHA
[16] = Affinity to phospholipids, IAM column (CHI IAM); format: physicochemical; conditions: IAM.PC.DD2 column, pH 7.4
[17] = target: 5-HT5A receptor (Homo sapiens, UniProt P47898); assay: [3H]-LSD radioligand binding assay, 5-HT5A; conditions: read-out: 5-HT5A Ki; [3H]-LSD, HEK293
[18] = Chromatographic hydrophobicity index on C18 column (lipophilicity); format: physicochemical
From the text: We began with an assay for lipophilicity, affinity for phospholipids (for 40 compounds), and drug binding to human serum albumin (HSA) (for 20 compounds), using chromatographic protocols developed by Valko [46] and implemented in our laboratory [47]. […] These methods allowed the determination of chromatographic hydrophobicity indices (CHIs), binding to HSA (%HSA), and phospholipids (CHIIAM) using a single-gradient elution experiment and comparison to reference substances.

[19] = target: T2, human serum albumin (HSA); assay: Binding to HSA, Chiralpak HSA column
From the text: We began with an assay for lipophilicity, affinity for phospholipids (for 40 compounds), and drug binding to human serum albumin (HSA) (for 20 compounds), using chromatographic protocols developed by Valko [46] and implemented in our laboratory. Compounds with the highest affinity for 5-HT6R and those showing the most promising ADMET parameters, including the possibility of BBB penetration, DDI, and lipophilicity, determined in silico in SwissADME [45], were selected for testing. These methods allowed the determination of chromatographic hydrophobicity indices (CHIs), binding to HSA (%HSA), and phospholipids (CHIIAM) using a single-gradient elution experiment and comparison to reference substances.
The use of columns modified with plasma proteins, such as HSA, also allows for the estimation of binding to HSA, which is the most dominant plasma protein (PP). Binding to PP affects drug pharmacokinetics, such as distribution, half-life, and clearance.
The mobile phase flow rate was 1.5 mL/min, and the column was maintained at 30 °C. • Chiralpak® HSA (50 mm × 4 mm; 5 µm with safety guard column; Daicel Chiral Technologies, West Chester, PA, USA), mobile phase A: 50 mM ammonium acetate, mobile phase B: HPLC-grade isopropanol (VWR International, Leuven, Belgium). For the first 15 min, the linear gradient from 0 to 20% isopropanol was applied and then held at 20% isopropanol for 12 min. In the last 5 min of the sequence, the mobile phase mixture received a pure ammonium acetate solution. The column temperature was held at 30 °C, whereas the flow rate was 0.9 mL/min.
The reference substances for the calibration of HSA, C18, and IAM columns were purchased, respectively: acetanilide, butyrophenone, diclofenac, and octanonophenone (Alfa Aesar, Haverhill, MA, USA); acetophenone, benzimidazole, colchicine, indole, indometacin, paracetamol, and theophylline (Sigma-Aldrich, Steinheim, Germany); nicardipine and nizatidine (Cayman Chemical, Ann Arbor, MI, USA); carbamazepine, heptanophenone, hexanophenone, propiophenone, and valerophenone (Acros Organic, Pittsburg, PA, USA). Before chromatographic experiments, solutes were dissolved in dimethyl sulfoxide (Avantor Performance Materials Poland S.A., Gliwice, Poland) to obtain a 200 µg/mL concentration. The detection was performed in the UV region at the wavelength from 190 nm to 300 nm. The injected volume was 5 μL, and each compound was analyzed in triplicate.

[20] = target: D2L receptor (Homo sapiens, UniProt P14416); assay: [3H]-raclopride radioligand binding assay, D2
[21] = Metabolic stability in mouse liver microsomes (MLMs); format: in vitro ADME; conditions: mouse, mouse liver microsomes, 120 min
Method: The metabolic stability of PR 68, PR 73, and PR 76 were determined in mouse liver microsomes (MLMs).
The metabolic stability of PR 68 was estimated with mouse liver microsomes (MLMs) (Sigma-Aldrich, St. Louis, MO, USA). […] Cold methanol was then added to the reaction mixture to quench the reaction. The precipitated MLMs were centrifuged, and the supernatant was analyzed by LC/MS with a Waters ACQUITY™ TQD system with a TQ detector (Waters, Milford, USA).
(1 picture or pasted object on this page, not shown here)

T2 sequence (P02768 25-609): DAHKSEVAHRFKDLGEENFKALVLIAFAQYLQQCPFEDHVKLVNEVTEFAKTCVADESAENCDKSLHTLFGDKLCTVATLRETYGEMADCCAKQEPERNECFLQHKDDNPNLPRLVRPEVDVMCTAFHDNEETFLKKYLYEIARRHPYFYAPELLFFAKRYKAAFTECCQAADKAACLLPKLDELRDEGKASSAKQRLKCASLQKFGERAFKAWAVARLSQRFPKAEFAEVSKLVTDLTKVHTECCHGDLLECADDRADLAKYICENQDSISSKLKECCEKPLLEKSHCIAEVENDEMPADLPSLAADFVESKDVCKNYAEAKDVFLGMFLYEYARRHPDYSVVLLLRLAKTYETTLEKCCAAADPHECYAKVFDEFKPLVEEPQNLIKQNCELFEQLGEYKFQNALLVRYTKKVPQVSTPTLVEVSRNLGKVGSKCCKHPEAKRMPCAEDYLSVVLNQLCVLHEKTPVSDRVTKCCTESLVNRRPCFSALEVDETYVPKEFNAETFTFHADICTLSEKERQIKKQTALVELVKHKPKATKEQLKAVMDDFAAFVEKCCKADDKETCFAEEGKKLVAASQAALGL
T1 sequence (P50406 whole entry): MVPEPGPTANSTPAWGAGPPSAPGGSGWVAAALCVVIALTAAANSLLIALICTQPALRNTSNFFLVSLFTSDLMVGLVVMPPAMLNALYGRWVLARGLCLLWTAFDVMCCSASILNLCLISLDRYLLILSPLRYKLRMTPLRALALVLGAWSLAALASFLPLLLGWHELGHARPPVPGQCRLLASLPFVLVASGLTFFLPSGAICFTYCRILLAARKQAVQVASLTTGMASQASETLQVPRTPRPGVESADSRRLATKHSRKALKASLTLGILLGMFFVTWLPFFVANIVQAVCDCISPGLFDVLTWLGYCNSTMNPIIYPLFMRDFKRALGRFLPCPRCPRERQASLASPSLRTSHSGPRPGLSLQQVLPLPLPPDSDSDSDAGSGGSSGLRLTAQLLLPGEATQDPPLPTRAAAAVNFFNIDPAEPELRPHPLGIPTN
Sequence of 5-HT7b receptor (P34969 1-432 limits assumed): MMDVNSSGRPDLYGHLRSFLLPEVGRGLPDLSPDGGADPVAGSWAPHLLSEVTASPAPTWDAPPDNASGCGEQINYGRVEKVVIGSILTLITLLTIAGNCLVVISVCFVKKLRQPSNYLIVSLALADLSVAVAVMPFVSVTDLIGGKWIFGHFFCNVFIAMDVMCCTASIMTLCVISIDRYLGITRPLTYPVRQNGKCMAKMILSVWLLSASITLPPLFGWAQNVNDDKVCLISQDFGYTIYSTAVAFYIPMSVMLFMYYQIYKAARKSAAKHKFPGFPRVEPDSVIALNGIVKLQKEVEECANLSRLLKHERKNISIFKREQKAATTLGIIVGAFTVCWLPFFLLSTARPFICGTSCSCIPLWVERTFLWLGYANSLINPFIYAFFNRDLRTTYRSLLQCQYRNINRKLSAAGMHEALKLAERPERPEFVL
Sequence of D2L receptor (P14416 whole entry): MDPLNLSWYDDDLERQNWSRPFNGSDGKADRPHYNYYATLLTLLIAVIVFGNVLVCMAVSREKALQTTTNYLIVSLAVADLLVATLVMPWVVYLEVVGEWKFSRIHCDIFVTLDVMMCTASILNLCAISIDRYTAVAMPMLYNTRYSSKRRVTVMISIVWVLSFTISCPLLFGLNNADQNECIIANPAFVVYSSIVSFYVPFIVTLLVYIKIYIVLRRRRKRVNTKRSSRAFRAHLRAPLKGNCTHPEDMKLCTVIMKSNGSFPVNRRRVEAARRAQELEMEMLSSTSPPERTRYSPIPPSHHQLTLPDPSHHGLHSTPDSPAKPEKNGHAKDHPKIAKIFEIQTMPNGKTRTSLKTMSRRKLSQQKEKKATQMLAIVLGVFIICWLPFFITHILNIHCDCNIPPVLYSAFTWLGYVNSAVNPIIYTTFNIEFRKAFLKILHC
Sequence of 5-HT5A receptor (P47898 whole entry): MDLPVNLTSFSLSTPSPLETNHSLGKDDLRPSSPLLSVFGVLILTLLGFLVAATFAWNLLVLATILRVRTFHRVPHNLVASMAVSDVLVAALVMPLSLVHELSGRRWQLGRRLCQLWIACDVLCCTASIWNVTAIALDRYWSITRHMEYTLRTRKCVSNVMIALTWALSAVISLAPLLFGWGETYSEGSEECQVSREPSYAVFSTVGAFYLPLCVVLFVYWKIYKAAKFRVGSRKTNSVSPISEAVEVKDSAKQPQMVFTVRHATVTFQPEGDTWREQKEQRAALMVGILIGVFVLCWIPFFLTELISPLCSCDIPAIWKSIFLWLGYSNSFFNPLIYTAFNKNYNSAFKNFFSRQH

Row | Compound | Ki [2] [µM] | IC50 ([5]; Homo sapiens, U-251, 72 h) [µM] | IC50 ([6]; Homo sapiens, U-87 MG) [µM] | IC50 ([7]; Homo sapiens, LN-229, 72 h) [µM] | melting point [°C] | IC50 ([9]; Homo sapiens, ASPC1, 72 h) [µM] | Ki [10] [µM] | Ki [11] [µM] | IC50 ([13]; Homo sapiens, MCF7, 72 h) [µM] | IC50 ([14]; Homo sapiens, 1321-N1, 72 h) [µM] | CHI IAM [16] | CHI C18 pH 2.6 [18] | CHI C18 pH 7.4 [18] | CHI C18 pH 10.5 [18] | Ki [20] [µM] | also measured
1 | CC(=O)CC(c1ccccc1)c1c(O)c2ccccc2oc1=O (stereo not drawn) [warfarin] |  |  |  |  |  |  |  |  |  |  |  |  |  |  |  | fraction unbound at 12 min, 20 µM [1]: 0.015
2 | O=S(=O)(NC1=NCc2ccccc2N1)c1cccc2ccccc12 [PR 40, N -(3,4-dihydroquinazolin-2-yl)naphthalene-1-sulfonamide] | 0.651 ± 0.135 |  |  |  |  |  |  |  |  |  |  |  |  |  |  | metabolized [3]: 97%
3 | O=c1[nH]c2ccccc2n1C1CCN(CCCC(c2ccc(F)cc2)c2ccc(F)cc2)CC1 [pimozide] |  |  |  |  |  |  |  |  |  |  |  |  |  |  |  | affinity to HSA [4]: 98.6%
4 | O=S(=O)(NC1=Nc2c(Cl)cccc2CN1)c1cccc2ccccc12 [PR 49, N -(8-chloro-3,4-dihydroquinazolin-2-yl)naphthalene-1-sulfonamide] | 0.077 ± 0.018 | > 25 | > 25 | > 25 | 250 to 256 | > 25 | 207 | 142 | > 25 | > 25 |  |  |  |  |  | Kb [8]: 0.081 µM; IC50 [12]: 38.8 µM
5 | CN(C)C/C=C/C(=O)Nc1cc2c(Nc3ccc(F)c(Cl)c3)ncnc2cc1O[C@H]1CCOC1 [Afatinib, reference compound] |  | 27 |  | 9.8 |  |  |  |  | 25.9 |  |  |  |  |  |  | IC50 [15]: 7.5 µM
6 | CN(C)c1ccc2c(c1)CNC(NS(=O)(=O)c1cccc3ccccc13)=N2 [PR 64, N -[6-(dimethylamino)-3,4-dihydroquinazolin-2-yl]naphthalene-1-sulfonamide] | 0.851 ± 0.192 | 7.7 ± 0.8 | > 25 | > 25 | 216 to 222 | > 25 |  |  | 9.7 ± 1.7 | > 25 |  |  |  |  |  | IC50 [15]: 15.1 ± 2.1 µM; selectivity index ([15]; activity on NHA compared to U-251 cells): 1.96
7 | N -[6-(4-methylpiperazin-1-yl)-3,4-dihydroquinazolin-2-yl]naphthalene-1-sulfonamide [PR 66] | 11.6 ± 2.66 |  |  |  |  |  |  |  |  |  | 36.0 | 81.4 | 79.6 | 80.7 |  | Ki [17]: 3.44 µM; IC50 ([5]; 72 h, MTS): > 25 µM; IC50 ([6]; MTS): > 25 µM; IC50 ([7]; 72 h, MTS): > 25 µM; IC50 ([9]; 72 h, MTS): > 25 µM; IC50 ([13]; 72 h, MTS): > 25 µM; IC50 ([14]; 72 h, MTS): > 25 µM; %HSA [19]: 92.7%; logKHSA [19]: 1.0
8 | CC1NC(NS(=O)(=O)c2cccc3ccccc23)=Nc2c(Cl)cccc21 (stereo not drawn) [PR 71, N -(8-chloro-4-methyl-3,4-dihydroquinazolin-2-yl)naphthalene-1-sulfonamide] | 0.061 ± 0.014 | > 25 | > 25 | > 25 | 215 to 219 | > 25 | 134 | 37.5 | > 25 | > 25 | 44.8 | 102.2 | 100.7 | 103.8 | 142 | Kb [8]: 0.035 µM; %HSA ([19]; Chiralpak HSA column): 97.5%; logKHSA ([19]; Chiralpak HSA column): 1.4
9 | CC1OC(NS(=O)(=O)c2cccc3ccccc23)=Nc2ccccc21 (stereo not drawn) [PR 77, N -(4-methyl-4H-3,1-benzoxazin-2-yl)naphthalene-1-sulfonamide] | 0.373 ± 0.092 | > 25 | > 25 | > 25 | 229 to 233 | > 25 | 7.54 | 56.7 | > 25 | > 25 | 40.8 | 102.5 | 99.9 | 103.2 | 222 | %HSA ([19]; Chiralpak HSA column): 95.9%; logKHSA ([19]; Chiralpak HSA column): 1.3
10 | CC1c2ccccc2N=C(NS(=O)(=O)c2cccc3ccccc23)N1C (stereo not drawn) [PR 76, N -(3,4-dimethyl-3,4-dihydroquinazolin-2-yl)naphthalene-1-sulfonamide] | 0.103 ± 0.025 | > 25 | > 25 | > 25 | 215 to 217 | > 25 | 11 | 35.6 | > 25 | > 25 |  |  |  |  | 174 | EC50 ([8]; agonist mode, cAMP): 0.199 µM; function at 5-HT6R ([8]; cAMP): agonist; remaining at 2 h, 50 µM [21]: 87.4%
